The record followed here is ChEMBL document CHEMBL1131794, “The synthesis and evaluation of 6-alkylidene-2'beta-substituted penam sulfones as beta-lactamase inhibitors” (Bioorg Med Chem Lett, 1999).

Some results are limits rather than exact numbers.

In experiment [1] the target is T1, Beta-lactamase (Staphylococcus aureus, UniProt P00807). Nature of the experiment: Inhibitory activity against serine Beta-lactamase derived from Staphylococcus aureus.
The target in experiment [2] is T1, Beta-lactamase. In words: Inhibitory activity against serine beta-lactamase, PC1 (class A) derived from Staphylococcus aureus.
The target in a further experiment is Beta-lactamase TEM (Escherichia coli, UniProt P62593). In words: Inhibitory activity against serine Beta-lactamase TEM derived from […]. It counts as single protein.
Experiment [3] relates to Escherichia coli. Nature of the experiment: In vitro synergistic activity against Escherichia coli C600N + (ampR ampC). Further: test concentration or dose not given here. It counts as functional.
Experiment [4] has as its system Escherichia coli. Nature of the experiment: In vitro synergistic activity against Escherichia coli GC 6266 clinical isolate. It counts as functional.
In experiment [5] the test system is Klebsiella pneumoniae. In words: In vitro synergistic activity against Klebsiella pneumoniae GC 6269 clinical isolate. Further: test concentration or dose not given here. Format: functional.
Experiment [6] deals with Escherichia coli. In words: In vitro synergistic activity against Escherichia coli C600N + (IRT-2). Further: test concentration or dose not given here. Format: functional.
Experiment [7] concerns Escherichia coli. In words: In vitro synergistic activity against Escherichia coli ATCC 35218 (TEM-1). Format: functional.
Experiment [8] deals with Escherichia coli. Nature of the experiment: In vitro synergistic activity against Escherichia coli C600N + (TEM-1). Format: functional.
Experiment [9] has as its system Escherichia coli. Nature of the experiment: In vitro synergistic activity against Escherichia coli C600N + (TEM-10). Format: functional.
Experiment [10] deals with Escherichia coli. In words: In vitro synergistic activity against Escherichia coli C600N + (Sme-1). It counts as functional.
The test system of experiment [11] is Enterobacter cloacae. In words: In vitro synergistic activity against Enterobacter cloacae (Imi-1+AmpC). Format: functional.
Experiment [12] relates to Escherichia coli. In words: In vitro synergistic activity against Escherichia coli GC6267 clinical isolate. It counts as functional.
The test system of experiment [13] is Escherichia coli. Nature of the experiment: In vitro synergistic activity against Escherichia coli 4100 (no beta-lactamase). It counts as functional.
In experiment [14] the test system is Escherichia coli. In words: In vitro synergistic activity against Escherichia coli ATCC 25922 (no beta-lactamase). Further: test concentration or dose not given here. Format: functional.
The subject of experiment [15] is Escherichia coli. Nature of the experiment: In vitro synergistic activity against Escherichia coli C600N + (SHV-1). It counts as functional.
Experiment [16] relates to Escherichia coli. Nature of the experiment: In vitro synergistic activity against Escherichia coli C600N + (OXA-10) {PSE-2}. Format: functional.
Experiment [17] relates to Klebsiella pneumoniae. Nature of the experiment: In vitro synergistic activity against Klebsiella pneumoniae (ACT-1 + 3 blas, IPM=S). Further: test concentration or dose not given here. It counts as functional.
Experiment [18] relates to Escherichia coli. In words: In vitro synergistic activity against Escherichia coli 300 + (TEM-1). It counts as functional.
Experiment [19] relates to Escherichia coli. In words: In vitro synergistic activity against Escherichia coli GC6265 (TEM-1). Format: functional.
For experiment [20], the system named is Enterobacter cloacae. In words: In vitro synergistic activity against Enterobacter cloacae SC12629 (AmpC inducible). Further: test concentration or dose not given here. Format: functional.
Experiment [21] relates to Escherichia coli. Nature of the experiment: In vitro synergistic activity against Escherichia coli 300 + (ampR ampC). Further: test concentration or dose not given here. Format: functional.
For experiment [22], the system named is Escherichia coli. Nature of the experiment: In vitro synergistic activity against Escherichia coli C600N + (Imi-1). Format: functional.
The test system of another experiment is Serratia marcescens. In words: In vitro synergistic activity against Serratia marcescens GC 4132 (Amp C). Further: test concentration or dose not given here. Format: functional.
Experiment [23] deals with Escherichia coli. In words: In vitro synergistic activity against Escherichia coli C600N + (PSE-1). It counts as functional.
Experiment [24] deals with Escherichia coli. Nature of the experiment: In vitro synergistic activity against Escherichia coli C600N + (P99). Format: functional.
Experiment [25] deals with Escherichia coli. In words: In vitro synergistic activity against Escherichia coli C600N + (SHV-4). It counts as functional.
The test system of experiment [26] is Escherichia coli. Nature of the experiment: In vitro synergistic activity against Escherichia coli C600N + (L1). Format: functional.
For experiment [27], the system named is Escherichia coli. In words: In vitro synergistic activity against Escherichia coli 4100 + (CCRA). It counts as functional.
Experiment [28] concerns Escherichia coli. Nature of the experiment: In vitro synergistic activity against Escherichia coli C600N + (MIR-1). It counts as functional.
For a further experiment, the system named is Pseudomonas aeruginosa. In words: In vitro synergistic activity against Pseudomonas aeruginosa Ps505A1 (AmpC derepressed). Further: test concentration or dose not given here. It counts as functional.
The test system of another experiment is Klebsiella aerogenes. Nature of the experiment: In vitro synergistic activity against Enterobacter aerogenes GC 6268 clinical isolate. Further: test concentration or dose not given here. Format: functional.
In a further experiment the test system is Staphylococcus aureus. In words: In vitro synergistic activity against Staphylococcus aureus (PC1). Further: test concentration or dose not given here. It counts as functional.
In experiment [29] the test system is Klebsiella pneumoniae. Nature of the experiment: In vitro synergistic activity against Klebsiella pneumoniae KC2 (TEM-10). Further: test concentration or dose not given here. Format: functional.
Experiment [30] relates to Stenotrophomonas maltophilia. Nature of the experiment: In vitro synergistic activity against Stenotrophomonas maltophilia 1712(L1). Further: test concentration or dose not given here. Format: functional.
A further experiment concerns Aeromonas sobria. Nature of the experiment: In vitro synergistic activity against Aeromonas sobria (Asb A, OXA-12, Asb M). Further: test concentration or dose not given here. It counts as functional.
Experiment [31] deals with Escherichia coli. Nature of the experiment: In vitro synergistic activity against Escherichia coli C600N (no beta-lactamase). It counts as functional.

T1 sequence (P00807 whole entry): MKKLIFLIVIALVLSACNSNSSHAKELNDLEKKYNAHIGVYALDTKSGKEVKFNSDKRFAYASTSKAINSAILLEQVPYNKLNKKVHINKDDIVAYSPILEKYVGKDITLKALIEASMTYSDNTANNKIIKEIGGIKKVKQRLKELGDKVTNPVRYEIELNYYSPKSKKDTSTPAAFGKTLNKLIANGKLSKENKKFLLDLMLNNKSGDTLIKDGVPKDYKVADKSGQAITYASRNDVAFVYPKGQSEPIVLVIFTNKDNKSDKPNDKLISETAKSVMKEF
Sequence of Beta-lactamase TEM (P62593 whole entry): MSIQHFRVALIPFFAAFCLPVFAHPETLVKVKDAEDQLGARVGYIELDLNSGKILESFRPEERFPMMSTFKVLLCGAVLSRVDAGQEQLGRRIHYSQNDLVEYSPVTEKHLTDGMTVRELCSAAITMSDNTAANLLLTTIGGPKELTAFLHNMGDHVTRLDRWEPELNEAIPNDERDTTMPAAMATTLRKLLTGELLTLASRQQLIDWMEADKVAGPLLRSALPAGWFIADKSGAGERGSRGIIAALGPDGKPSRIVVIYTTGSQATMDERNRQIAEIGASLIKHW

With `COC(=O)/C=C1/C(=O)N2C1S(=O)(=O)[C@@](C)(COC(=O)CSc1nnnn1C)[C@@H]2C(=O)O` (some centres undefined), the figures for the IC50 on Beta-lactamase [1], on Beta-lactamase [2] and on Beta-lactamase TEM were 13.2 µM, 940 µM and 2.37 µM, respectively.
For `C[C@]1(CCl)[C@H](C(=O)O)N2C(=O)/C(=C/C(=O)O)C2S1(=O)=O` (some centres undefined), the IC50 against Beta-lactamase [1] stood at 527 µM; on Beta-lactamase [2], 2100 µM; against Beta-lactamase TEM, 120 µM.
As to `C[C@]1(/C=C/C#N)[C@H](C(=O)O)N2C(=O)/C(=C/C(=O)O)C2S1(=O)=O` (some centres undefined), the IC50 against Beta-lactamase [1] is 6.76 µM; on Beta-lactamase [2] it was 504 µM; against Beta-lactamase TEM, 21.7 µM.
The matching figures for `CC1(C)[C@H](C(=O)O)N2C(=O)/C(=C/C(=O)O)C2S1(=O)=O` (some centres undefined): 4.5 µM, 108 µM and 1.8 µM.
As to `C[C@]1(COC=O)[C@H](C(=O)O)N2C(=O)/C(=C/C(=O)O)C2S1(=O)=O` (some centres undefined), the IC50 against Beta-lactamase [1] amounted to 0.592 µM; at Beta-lactamase [2] it was 173 µM.
`CC(=O)OC[C@@]1(C)[C@H](C(=O)O)N2C(=O)/C(=C/C(=O)O)C2S1(=O)=O` (some centres undefined): the IC50 against Beta-lactamase [1] came out at 0.708 µM; at Beta-lactamase [2], 76.5 µM; on Beta-lactamase TEM it was 0.18 µM.
In the case of `COC(=O)/C=C1/C(=O)N2[C@@H](C(=O)O)[C@](C)(COC(C)=O)S(=O)(=O)[C@H]12`, the IC50 against Beta-lactamase [1] stood at 9.51 µM; against Beta-lactamase TEM, 2.72 µM.
In the case of `C[C@]1(COC(=O)CCl)[C@H](C(=O)O)N2C(=O)/C(=C/C(=O)O)[C@H]2S1(=O)=O`, the IC50 on Beta-lactamase [2] turned out to be 7.2 µM; on Beta-lactamase TEM it was 0.196 µM.
With `C[C@@H](O)[C@H]1C(=O)N2C(C(=O)O)=C(SCCNC=N)C[C@H]12` [IMIPENEM ANHYDROUS], the MIC in the experiment with Escherichia coli [3] was 0.5 µg/mL; with Escherichia coli [4], 0.25 µg/mL; in the experiment on Klebsiella pneumoniae [5] it was 0.12 µg/mL; in the experiment on Escherichia coli [6] it was 0.25 µg/mL; in the experiment on Escherichia coli [7] it was less than 0.06 µg/mL; in the experiment on Escherichia coli [8], 0.12 µg/mL. Moreover, the MIC was 0.12 µg/mL with Escherichia coli [9]; 64 µg/mL in the experiment with Escherichia coli [10]; greater than 64 µg/mL in the experiment with Enterobacter cloacae [11]; 0.12 µg/mL with Escherichia coli [12]; 0.12 µg/mL with Escherichia coli [13]; less than 0.06 µg/mL in the experiment with Escherichia coli [14]. Besides, the MIC was 0.12 µg/mL with Escherichia coli [15]; 0.12 µg/mL in the experiment with Escherichia coli [16]; 1 µg/mL in the experiment with Klebsiella pneumoniae [17]; less than 0.06 µg/mL in the experiment with Escherichia coli [18]; less than 0.06 µg/mL with Escherichia coli [19]; 1 µg/mL in the experiment with Enterobacter cloacae [20]. For the same molecule, the MIC in the experiment on Escherichia coli [21] was less than 0.06 µg/mL; in the experiment on Escherichia coli [22] it was 4 µg/mL; in the experiment with Serratia marcescens it was 1 µg/mL; in the experiment with Escherichia coli [23], 0.12 µg/mL; in the experiment with Escherichia coli [24] it was 0.25 µg/mL; in the experiment on Escherichia coli [25] it was 0.12 µg/mL. The MIC in the experiment with Escherichia coli [26] was 2 µg/mL; in the experiment with Escherichia coli [27], 16 µg/mL; with Escherichia coli [28], 0.5 µg/mL; with Pseudomonas aeruginosa, 0.5 µg/mL; with Klebsiella aerogenes, 1 µg/mL; with Staphylococcus aureus, less than 0.06 µg/mL. Further, the MIC was less than 0.06 µg/mL in the experiment with Klebsiella pneumoniae [29], greater than 64 µg/mL in experiment [30] and greater than 64 µg/mL with Aeromonas sobria.
With `CCN1CCN(C(=O)N[C@@H](C(=O)N[C@@H]2C(=O)N3[C@@H]2SC(C)(C)[C@@H]3C(=O)O)c2ccccc2)C(=O)C1=O` [PIPERACILLIN], the MIC in the experiment on Escherichia coli [3], with Escherichia coli [4], with Klebsiella pneumoniae [5], with Escherichia coli [6], in the experiment with Escherichia coli [7] and in the experiment with Escherichia coli [10] was greater than 64 µg/mL throughout. Also, the MIC is greater than 64 µg/mL in the experiment with Enterobacter cloacae [11]; greater than 64 µg/mL with Escherichia coli [12]; less than 0.06 µg/mL with Escherichia coli [13]; 2 µg/mL in the experiment on Escherichia coli [14]; 4 µg/mL with Escherichia coli [15]; greater than 64 µg/mL in the experiment with Klebsiella pneumoniae [17]. Moreover, the MIC in the experiment on Escherichia coli [18] was greater than 64 µg/mL; in the experiment on Escherichia coli [19] it was greater than 64 µg/mL; with Enterobacter cloacae [20] it was greater than 64 µg/mL; in the experiment with Escherichia coli [21], 16 µg/mL; with Escherichia coli [22], greater than 64 µg/mL; in the experiment with Serratia marcescens it was 64 µg/mL. Further, the MIC in the experiment on Escherichia coli [23] is 32 µg/mL; in the experiment with Escherichia coli [24], greater than 64 µg/mL; with Escherichia coli [26], greater than 64 µg/mL; in the experiment with Escherichia coli [27], greater than 64 µg/mL; in the experiment with Escherichia coli [31], 2 µg/mL; with Escherichia coli [28], 64 µg/mL. Moreover, the MIC in the experiment with Pseudomonas aeruginosa was greater than 64 µg/mL; with Klebsiella aerogenes it was greater than 64 µg/mL; with Staphylococcus aureus, greater than 64 µg/mL; with Klebsiella pneumoniae [29], greater than 64 µg/mL; in [30], greater than 64 µg/mL; in the experiment on Aeromonas sobria it was 64 µg/mL.
